For one assay, the target named is T1, PKC epsilon (Homo sapiens, UniProt Q02156).
T1 construct: purchased Invitrogen P2282
T1 sequence (Q02156 1-737): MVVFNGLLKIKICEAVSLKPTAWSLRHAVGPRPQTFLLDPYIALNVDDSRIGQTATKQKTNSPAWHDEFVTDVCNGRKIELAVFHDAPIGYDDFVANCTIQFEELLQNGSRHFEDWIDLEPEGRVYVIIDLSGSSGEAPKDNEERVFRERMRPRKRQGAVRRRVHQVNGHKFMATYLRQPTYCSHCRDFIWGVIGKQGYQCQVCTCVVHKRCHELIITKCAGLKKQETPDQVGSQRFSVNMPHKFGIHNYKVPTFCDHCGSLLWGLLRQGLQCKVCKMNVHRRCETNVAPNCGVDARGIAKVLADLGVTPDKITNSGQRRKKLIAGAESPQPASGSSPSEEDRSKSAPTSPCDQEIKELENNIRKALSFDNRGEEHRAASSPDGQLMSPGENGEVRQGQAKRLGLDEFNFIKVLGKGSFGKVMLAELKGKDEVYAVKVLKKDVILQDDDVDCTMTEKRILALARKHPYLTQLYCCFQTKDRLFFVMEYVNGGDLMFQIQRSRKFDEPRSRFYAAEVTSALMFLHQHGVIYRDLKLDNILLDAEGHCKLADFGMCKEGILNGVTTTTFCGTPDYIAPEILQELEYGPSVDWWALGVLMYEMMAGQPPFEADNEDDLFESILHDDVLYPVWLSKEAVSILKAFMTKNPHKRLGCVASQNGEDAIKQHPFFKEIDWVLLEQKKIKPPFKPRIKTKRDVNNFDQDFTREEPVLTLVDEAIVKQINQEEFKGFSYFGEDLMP
In words: Biochemical assay for PKC epsilon (fluorescence polarization, Protein Kinase C Assay Kit, Red). As to conditions: read-out: IC50 μM PKCε. Here is the method:
The compounds were tested for inhibition of PKC epsilon.
The inhibition assays were performed with a fluorescence polarization (FP) assay using the commercially available Protein Kinase C Assay Kit, Red, from Invitrogen (Product ID. No. P2941), essentially in accordance with the protocol supplied by the manufacturer. […] The isozyme PKC epsilon was also obtained from Invitrogen (Product ID No. P2282).
Staurosporine was used as a positive control (2 μM).
To perform the assay, 2 μl of a solution of the compound to be tested in DMSO (at each concentration) was added to 6 μl of a solution of the enzyme in 10 mM HEPES, 5 mM dithiotreitol, 0.1% Triton X-100, pH 7.4. The final concentration of the enzymes was 10 ng/ml.
After incubating for 30 minutes at room temperature, 4 μl of a mixture of ATP and the protein substrate in 60 mM HEPES (pH7.4), 15 mM MgCl2, 0.3 mM CaCl2, 0.06% NP40 was added.
After incubating for 80 minutes at room temperature, 3 μl of a mix solution of 500 mM EDTA (stop solution) and the Rhodamine-based PKC Red Tracer (from the Protein Kinase C Assay Kit) in BGG/phosphate buffer (pH7.4) with 0.02% NaN3 and 0.1% Triton X-100 was added and 5 μl of a the Anti-Phosphoserine antibody (also from the Protein Kinase C Assay Kit) in BGG/phosphate buffer (pH7.4) with 0.02% NaN3.
The results were fitted to a curve using the XL-Fit algorithm and […] were calculated for each fitted curve, again using the XL-Fit algorithm.
(In general: Polarisation of emitted light reports the rotation of a fluorescent probe.)

The next assay has as its target T2, human ROCKα/ROCKII mix (Homo sapiens, UniProt O75116).
T2 construct: purchased Upstate Biotechnology 14-451
In words: Biochemical assay for ROCK (fluorescence polarization, ROCK IMAP Kit). Here is the method:
The compounds were tested for inhibition of human ROCKα/ROCKII mix.
The inhibition assays were performed with a fluorescence polarization (FP) assay using the commercially available ROCK IMAP Kit from Molecular Devices (Product ID. No. R8093), essentially in accordance with the protocol supplied by the manufacturer. […] The enzyme mix ROCKα/ROCKII was obtained from Upstate Biotechnology (Product ID No 14-451).
In summary, the compound was screened in the wells of a 384 well plate for enzymatic inhibition with concentrations varying from 100 μM to 0.3 nM using a stepwise 3 (or 2)-fold dilution.
To perform the assay, 1 μl of a solution of the compound to be tested in DMSO (at each concentration) was added to 2 μl of a solution of the enzyme in 10 mM Tris-HCl , 10 mM MgCl2, 0.1% BSA, 0.05% NaN3, pH 7.2. The final concentration of the enzyme was 2.6 nM.
After incubating for 30 minutes at room temperature, 2 μl of a mixture of ATP and the protein substrate in 10 mM Tris-HCl, 10 mM MgCl2, 0.1% BSA, 0.05% NaN3, pH 7.2 was added. The final concentration of the ATP was 10 μM and final concentration of protein substrate was 0.2 μM.
After incubating for 60 minutes at room temperature, 12 μl of the IMAP Binding Solution (mix of the IMAP Binding Buffer A (1×) and the IMAP Binding Reagent (from the ROCK IMAP kit)) was added.
The mixture thus obtained (total volume: 17 μl) was incubated for 60 minutes at room temperature, upon which the fluorescence polarization was measured using an automated plate reader (Perkin Elmer, Model Envision 2100-0010 HTS) with FP filters: excitation filter FITC FP 480 and emission filters FITC FP P-pol 535 and FITC FP S-pol 535 (Perkin-Elmer). The results were fitted to a curve using the XL-Fit algorithm and IC50 values were calculated for each fitted curve, again using the XL-Fit algorithm.

Where [1] appears, read: Table 2, compounds of Formula XIII.
Where [2] appears, read: compounds of Formula XIV, Table 3.

Counter-ions that a name gives are not always drawn. Like-named read-outs stand apart in the source and are kept apart here.

T2 sequence (O75116 11-552 limits assumed): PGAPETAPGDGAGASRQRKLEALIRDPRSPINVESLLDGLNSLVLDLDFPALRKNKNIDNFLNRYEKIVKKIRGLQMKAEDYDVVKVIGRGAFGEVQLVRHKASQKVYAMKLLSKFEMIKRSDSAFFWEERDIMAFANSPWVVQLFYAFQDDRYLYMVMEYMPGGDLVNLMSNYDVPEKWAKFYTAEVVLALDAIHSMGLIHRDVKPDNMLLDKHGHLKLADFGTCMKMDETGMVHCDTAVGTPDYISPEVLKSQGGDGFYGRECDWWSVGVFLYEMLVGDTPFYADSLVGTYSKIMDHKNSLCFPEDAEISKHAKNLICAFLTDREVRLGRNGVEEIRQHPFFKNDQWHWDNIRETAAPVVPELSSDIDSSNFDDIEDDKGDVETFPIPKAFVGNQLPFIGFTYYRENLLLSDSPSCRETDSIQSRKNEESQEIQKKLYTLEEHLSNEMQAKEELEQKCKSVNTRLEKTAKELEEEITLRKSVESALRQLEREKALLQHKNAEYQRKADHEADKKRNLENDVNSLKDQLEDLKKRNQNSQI

Take “4-{1-Amino-2-[(2- benzo[1,3]dioxol-5-yl- acetyl)-methyl-amino]-ethyl}- N-pyridin-4-yl-benzamide [Compound 432]”: the 50% inhibitory concentration (IC50) (usually the concentration that inhibits the measured activity by half) on PKC epsilon is 5 to 50 µM; against human ROCKα/ROCKII mix, 0.5 to 5 µM.

In the case of `NC(CNC(=O)c1cnnc2ccccc12)c1ccc(C(=O)Nc2ccncc2)cc1` (stereo not drawn) [Compound 113, Cinnoline-4-carboxylic acid {2-amino-2-[4-(pyridin-4-ylcarbamoyl)-phenyl]-ethyl}-amide], the IC50 on PKC epsilon (setting [1]) and against human ROCKα/ROCKII mix (setting [1]) was 0.5 to 5 µM in each case.

As for `COc1cccc(CC(=O)N2CCCC2C(N)c2ccc(C(=O)Nc3ccncc3)cc2)c1` (stereo not drawn) [Compound 527, 4-(Amino-{1-[2-(3-methoxy-phenyl)-acetyl]-pyrrolidin-2-yl}-methyl)-N-pyridin-4-yl-benzamide], the IC50 at PKC epsilon and against human ROCKα/ROCKII mix was 0.5 to 5 µM each time.

Take `N[C@@H](CNC(=O)C1(c2ccc(Cl)cc2)CC1)c1ccc(C(=O)Nc2ccncc2)cc1` [Compound 398, 4-((R)-1-Amino-2-{[1-(4-chloro-phenyl)-cyclopropanecarbonyl]-amino}-ethyl)-N-pyridin-4-yl-benzamide dihydrochloric acid salt]: the IC50 on PKC epsilon and against human ROCKα/ROCKII mix was 0.5 to 5 µM each time.

“4-{1-Amino-2-[2-(9H-fluoren- 2-yl)-ethylcarbamoyl]-ethyl}- N-pyridin-4-yl-benzamide [Compound 318]”: the IC50 on PKC epsilon (setting [2]) lay within 5 to 50 µM; on human ROCKα/ROCKII mix (setting [2]) it was 0.05 to 0.5 µM.

At human ROCKα/ROCKII mix, `COc1ccc(CNC(=O)NCC(N)c2ccc(C(=O)Nc3ccncc3)cc2)cc1` (stereo not drawn) [Compound 10, 4-{1-amino-2-[3-(4-methoxy-benzyl)-ureido]-ethyl}-N-pyridin-4-yl-benzamide] displayed an IC50 of 0.05 to 0.5 µM.

“4-{Amino-[1-(2-methyl-2-thiophen-2-yl-propionyl)-pyrrolidin-2-yl]-methyl}-N-pyridin-4-yl-benzamide [Compound 548]” showed an IC50 on human ROCKα/ROCKII mix of 0.5 to 5 µM.

In turn, “4-(1-Amino-2-{[2-(2,3,4- trimethoxy-phenyl)-acetyl]- methyl-amino}-ethyl)-N- pyridin-4-yl-benzamide [Compound 431]” yielded an IC50 against human ROCKα/ROCKII mix of 5 to 50 µM.

On to “4-(1-Amino-2-{[1-(4-chloro- phenyl)- cyclopropanecarbonyl]- methyl- amino}-ethyl)- N-pyridin-4-yl-benzamide [Compound 463]”, for which the half-maximal inhibitory concentration (IC50) at human ROCKα/ROCKII mix was in the range of 0.5 to 5 µM.

On human ROCKα/ROCKII mix, “4-(1-Amino-2-{[1-(4-fluoro- phenyl)- cyclopropanecarbonyl]- methyl- amino}-ethyl)- N-pyridin-4-yl-benzamide [Compound 473]” gave an IC50 of 0.5 to 5 µM.

The molecule “4-(1-Amino-2-{[2-(4-chloro- phenyl)-2-methyl-propionyl]- methyl- amino}-ethyl)- N-pyridin-4-yl-benzamide [Compound 462]” had an IC50 on human ROCKα/ROCKII mix of 0.5 to 5 µM.

Turning to “4-[1-Amino-2-(methyl- phenethyl-carbamoyl)-ethyl]- N-pyridin-4-yl-benzamide [Compound 282]”, on human ROCKα/ROCKII mix (setting [2]), the IC50 was in the range of 0.05 to 0.5 µM.

On human ROCKα/ROCKII mix, “4-(1-Amino-2-{[1-(4-chloro- phenyl)- cyclobutanecarbonyl]- methyl- amino}-ethyl)- N-pyridin-4-yl-benzamide [Compound 464]” had an IC50 of 0.5 to 5 µM.

In turn, `NC(CNC(=O)Nc1ccc(F)cc1)c1ccc(C(=O)Nc2ccncc2)cc1` (stereo not drawn) [Compound 19, 4-{1-amino-2-[3-(4-fluoro-phenyl)-ureido]-ethyl}-N-pyridin-4-yl-benzamide] had an IC50 against human ROCKα/ROCKII mix of 0.05 to 0.5 µM.

At human ROCKα/ROCKII mix, `CC(C)(C(=O)N1CCCC1C(N)c1ccc(C(=O)Nc2ccncc2)cc1)c1ccsc1` (stereo not drawn) [Compound 550, 4-{Amino-[1-(2-methyl-2-thiophen-3-yl-propionyl)-pyrrolidin-2-yl]-methyl}-N-pyridin-4-yl-benzamide] displayed an IC50 of 0.5 to 5 µM.

“4-(1-Amino-2-{[1-(4-chloro- phenyl)- cyclopentanecarbonyl]- methyl- amino}-ethyl)- N-pyridin-4-yl-benzamide [Compound 465]” returned an IC50 on human ROCKα/ROCKII mix of 0.5 to 5 µM.

In turn, `NC(CNC(=O)c1ccc2ccccc2n1)c1ccc(C(=O)Nc2ccncc2)cc1` (stereo not drawn) [Compound 112, Quinoline-2-carboxylic acid {2-amino-2-[4-(pyridin-4-ylcarbamoyl)-phenyl]-ethyl}-amide] showed an IC50 against human ROCKα/ROCKII mix (setting [1]) of 0.05 to 0.5 µM.

Molecule `CN(CC(N)c1ccc(C(=O)Nc2ccncc2)cc1)C(=O)C1CC(=O)c2ccccc21` (stereo not drawn) [Compound 508, 3-Oxo-indan-1-carboxylic acid {2-amino-2-[4-(pyridin-4-ylcarbamoyl)-phenyl]-ethyl}-methyl-amide] came in with an IC50 against human ROCKα/ROCKII mix of 0.5 to 5 µM.

As to `CN(Cc1ccccc1)C(=O)CC(N)c1ccc(C(=O)Nc2ccncc2)cc1` (stereo not drawn) [Compound 214, 4-[1-Amino-2-(benzyl-methyl-carbamoyl)-ethyl]-N-pyridin-4-yl-benzamide], the IC50 on human ROCKα/ROCKII mix (setting [2]) was in the range of 0.05 to 0.5 µM.

Turning to “4-(Amino-{1-[2-(4-fluoro-phenyl)-2-methyl-propionyl]-pyrrolidin-2-yl}-methyl)-N-pyridin-4-yl-benzamide [Compound 586]”, the IC50 against human ROCKα/ROCKII mix was 0.5 to 5 µM.

`COc1ccc(Cl)cc1NC(=O)NCC(N)c1ccc(C(=O)Nc2ccncc2)cc1` (stereo not drawn) [Compound 27, 4-{1-amino-2-[3-(5-chloro-2-methoxy-phenyl)-ureido]-ethyl}-N-pyridin-4-yl-benzamide] yielded an IC50 at human ROCKα/ROCKII mix of 0.05 to 0.5 µM.

On human ROCKα/ROCKII mix, `Cc1ccccc1CNC(=O)NCC(N)c1ccc(C(=O)Nc2ccncc2)cc1` (stereo not drawn) [Compound 9, 4-{1-amino-2-[3-(2-methyl-benzyl)-ureido]-ethyl}-N-pyridin-4-yl-benzamide] had an IC50 of 0.05 to 0.5 µM.

The molecule `CN(CC(N)c1ccc(C(=O)Nc2ccncc2)cc1)C(=O)Cc1ccc(F)c(F)c1` (stereo not drawn) [Compound 484, 4-(1-Amino-2-{[2-(3,4-difluoro-phenyl)-acetyl]-methyl-amino}-ethyl)-N-pyridin-4-yl-benzamide] yielded an IC50 against human ROCKα/ROCKII mix of 0.5 to 5 µM.

At human ROCKα/ROCKII mix, “4-(1-Amino-2-{[2-(4-fluoro- phenyl)-2-methyl-propionyl]- methyl- amino}-ethyl)- N-pyridin-4-yl-benzamide [Compound 472]” showed an IC50 of 0.5 to 5 µM.

As to `Cc1ccc(NC(=O)CC(N)c2ccc(C(=O)Nc3ccncc3)cc2)cc1` (stereo not drawn) [Compound 317, 4-(1-Amino-2-p-tolylcarbamoyl-ethyl)-N-pyridin-4-yl-benzamide], on human ROCKα/ROCKII mix (setting [2]), the IC50 fell in the range of 0.05 to 0.5 µM.

For the origin of these results see patent US20100168102A9, “Amide Derivatives as Kinase Inhibitors” (Devgen NV, priority 2005, published 2010).
